Data from patent US20240247029A1, “INTERLEUKIN-1 RECEPTOR MODULATORS AND USES THEREOF” (VALORISATION HSJ, LIMITED PARTNERSHIP, priority 2020, published 2024).

Columns and labels:
[1] = test system: IL-1β-induced phosphorylation of p38; assay: IL-1β-induced p38 phosphorylation, Western blot, RAW Blue cells; assay type: cell-based; conditions: peptide 10^−6 M 30 min, then IL-1β 15 min
Method: (§1) FIGS. 5A-C are graphs showing the effects of peptides 1 and 2 on IL-1β-induced phosphorylation of p38 (FIG. 5A), JNK (FIG. 5B), and ROCK2 (FIG. 5C). Graphical representations of band density analysis of Western Blots are shown as fold activation compared to control. RAW Blue cells were pretreated with peptides 1 and 2 (10^−6 M), Kineret (1 mg/mL), or vehicle for 30 min and then stimulated with IL-1β for 15 min. Results shown are the average of 3 independent experiments: *p<0.05, ** p<0.01, ***p<0.001 compared to group treated only with IL-1β. Treatment groups that are not labeled with asterisks are statistically non-significant compared to group treated only with IL-1β.

Sprague Dawley rat pups = assay: Oxygen-induced retinopathy (OIR) model; assay type: in vivo; conditions: 2 mg/kg/day intraperitoneal twice daily, 80% oxygen P5 to P10; for extent of vaso-obliteration (percentage of total retinal area): vehicle ˜30%
Description: Experiments in the oxygen-induced retinopathy rodent model were preformed according to the method described previously (Geranurimi et al. 2019), and summarized below.
Animals. Two-day-old (P2) Sprague Dawley rat pups and their mothers were ordered from Charles River (Raleigh, SC, USA) and acclimatized for 3 days in standard conditions. All procedures and protocols involving the use of the rats were approved by the Animal Care Committee of the research center of Hopital Maisonneuve-Rosemont and are in accordance with the Statement for the Use of Animals in Ophthalmic and Vision Research approved by the Association for Research in Vision and Ophthalmology, and guidelines established by the Canadian Council on Animal Care.
Oxygen-Induced Retinopathy in Sprague Dawley Rats. The 80% oxygen model of retinopathy was conducted as previously described (Geranurimi et al. 2019). Briefly, litters of P5 pups and their mothers were kept in a controlled 80% oxygen environment until P10. The pups were respectively injected intraperitoneally twice daily with PBS vehicle (20 μL per injection), peptide 1 or derivatives 2 (titrated to a daily dose of 2 mg/kg/day). Control litters were kept under normal air atmosphere and standard conditions. On P10, pups were euthanized by decapitation under 2% isoflurane anesthesia. Eyes were enucleated and fixed in 4% paraformaldehyde, then stored at 4° C. in phosphate-buffered saline (PBS) until further processing.
Retinal Flatmount and Immunohistochemistry. The fixed eyes were dissected, and the obtained retinas were incubated with antibodies and mounted onto slides as previously described in (Geranurimi et al. 2019). Briefly, the cornea and lens were removed from the eyes, and the retina gently removed from the underlying sclera-choroid-retinal pigmented epithelium (RPE) complex. Retinas were treated for 1h with blocking solution [1% bovine serum albumin (BSA), 1% normal goat serum, 0.1% Triton X-100 and 0.05% Tween-20 in PBS], and then incubated overnight with lectin and Iba-1 primary antibody, followed by Alexa-594-conjugated secondary antibody for 2 h. Retinas were then mounted onto microscope slides under coverslips with anti-fade mounting medium.
Microscopy. Retinal flatmounts were imaged using the Zeiss Axiolmager Z2 and the MosaiX feature of the AxioVision software as previously described (Geranurimi et al. 2019). Representative images after Iba-1 staining were taken using a laser scanning confocal microscope (Olympus IX81 with Fluoview FV1000 Scanhead) using the Fluoview Software at 30× magnification.
Quantification and Data Analysis. The FIJI software was used to quantify the area of vaso-obliteration in each retina, expressed as a percentage of the area of the whole retina. The number of Iba-1-positive cells was counted using the cell counter plug-in in the FIJI software, and the average of cell counts in 4 fields per retina was calculated. Data was analyzed using Prism 7 with one-way ANOVA and the Dunnett's test for multiple comparisons. Results were treated as significant when p was less than 0.05 and expressed as mean+SEM.

timed-pregnant CD-1 mice = assay: LPS-induced preterm birth model in mice; assay type: in vivo, mouse; conditions: 2 mg/kg/day subcutaneous, LPS 10 μg intraperitoneal on G16.5; for PTB rate: delivery before G18.5, LPS alone ˜80%
Method: FIG. 6 is a graph showing the effects of peptides 1 and 2 on prevention of PTB. In brief, pregnant dams on day 16.5 of gestation (G16.5) were subcutaneously pretreated with peptides 1 and 2 (2 mg/kg/day subcutaneous injections) or vehicle, followed by LPS (10 μg intraperitoneal injection), and observed for delivery of pups. A dam was considered as delivering preterm if at least one pup was delivered before G18.5. n=4-5 dams per treatment group.
Timed-pregnant CD-1 mice at 16.5 days of gestation (G16.5) were anesthetized with 2% isoflurane and received an intraperitoneal injection of lipopolysaccharide (LPS, n=4 per group, a single dose of 10 ug) (Nadeau-Vallée et al., 2015; Kakinuma et al., 1997). A dosage of 2 mg/kg/day of peptides 1 and 2 or vehicle was respectively injected subcutaneously in the neck, every 12h until delivery. On G16.5, a dose of 1 mg/kg was injected 30 min before stimulation with LPS (to allow distribution of drugs to target tissues) and 1 mg/kg was injected 12h after stimulation (n=4 each treatment). Mice delivery was assessed every hour until term (G19-G19.5). A mouse was considered as delivering prematurely if the first pup was delivered earlier than G18.5. Data was analyzed using Prism 7 (GraphPad Software, San Diego, CA, USA) with one-way ANOVA and Dunnett's test for multiple comparisons. Outliers were detected using Grubb's test. Results were treated as significant when p was <0.05 and expressed as mean+SEM.
From the results of the in vitro screens, a subset of six (3R,4S)-β-substituted-Agl^3 peptides (e.g., 2c, 2d, 2f, 2l, 2n, 2q) were selected for examination in vivo in a CD-1 mouse model of preterm birth (PTB), and a Sprague Dawley rat model of oxygen-induced retinopathy (OIR). In the PTB model, timed-pregnant CD-1 dams were pre-treated with peptides 1 or 2, or PBS vehicle, and then injected with LPS on day 16.5 of gestation (G16.5). A bacterial cell wall component that contains PAMPs, LPS is known to reliably induce labor via pro-inflammatory pathways implicating IL-1 (Hirsch and Wang 2005). The CD-1 mice have a gestation of 19.2 days (Goupil et al. 2010). Dams that delivered at least one pup before G18.5 were considered to have given birth prematurely. In the absence of peptide, LPS alone induced premature labor in ˜80% of treated mice (FIG. 6). Peptide 1 and triazoles 2 l and 2q, all reduced the PTB rate to ˜20%.

IL-1β gene expression = assay: qPCR of IL-1β gene expression in RAW 264.7 macrophages; assay type: cell-based; conditions: peptide 10^−6 M, 30 min pre-incubation, IL-1β stimulation, RAW 264.7 mouse macrophages
Method: (§2) FIGS. 4A and 4B are graphs showing the results of qPCR analysis of IL-1β (FIG. 4A) and COX-2 (FIG. 4B) gene expression within lysates from RAW 264.7 mouse macrophage cells after exposure to peptides 1 and 2 (10^-6 M) or Kineret (1 mg/mL) followed by […] incubation overnight. Results represent an average of 3 independent experiments (each with n=4 per treatment group) and are expressed as a fold-change of the non-stimulated control: *p<0.05, **p<0.01 compared to group treated only with IL-1β, and 18S rRNA as internal control. Treatment groups that are not labeled with asterisks are statistically non-significant compared to group treated only with IL-1β.;
(§3) RAW Blue cells were purchased from InvivoGen® (San Diego, CA), used at passages under 15, and cultured in DMEM growth medium supplemented with 10% serum, 50 U/mL penicillin and […] zeocin. Cells were grown in regular conditions (37° C., 5% CO2), serum starved overnight, and treated with 100 ng/ML IL-1β for 4 h. Cells were respectively pre-incubated for 30 min with peptides 1 and 2 (10^−6 M) or Kineret® (1.0 mg/mL) to reach equilibrium prior to the experiments (n=4 each treatment). Cells were harvested and incubated for 5 min in RIBOzol® (AMRESCO). RNA was extracted according to manufacturer's protocol and RNA concentration and integrity were measured with a NanoDrop® 1,000 spectrophotometer. A total of 500 ng of RNA was used to synthesize cDNA using iScript Reverse Transcription SuperMix® (Bio-Rad, Hercules, CA). Primers (Table 1) were designed using National Center for Biotechnology Information Primer Blast. Quantitative gene expression analysis was performed on Stratagene® MXPro3000 (Stratagene) with SYBR Green Master Mix (Bio-Rad). Gene expression levels were normalized to 18S universal primer (Ambion Life Technology, Burlington ON, Canada). Genes analyzed include […] and PTGHS2 [Prostaglandin H synthetase 2 or cyclooxygenase-2 (COX-2)]. Data are representative of 3 experiments (each with n=4 per treatment group).

[2] = test system: COX-2 (PTGHS2) gene expression; assay: qPCR of COX-2 gene expression in RAW 264.7 macrophages; assay type: cell-based; conditions: peptide 10^−6 M, 30 min pre-incubation, IL-1β stimulation, RAW 264.7 mouse macrophages
Method: as §2, §3

[3] = test system: IL-1β-induced phosphorylation of JNK; assay: IL-1β-induced JNK phosphorylation, Western blot, RAW Blue cells; assay type: cell-based; conditions: peptide 10^−6 M 30 min, then IL-1β 15 min
Method: as §1

[4] = test system: IL-1β-induced phosphorylation of ROCK2; assay: IL-1β-induced ROCK2 phosphorylation, Western blot, RAW Blue cells; assay type: cell-based; conditions: peptide 10^−6 M 30 min, then IL-1β 15 min
Method: as §1

[5] = test system: IL-1β-induced NF-κB signaling in HEK-Blue IL-33/IL-1β cells; assay: NF-κB QUANTI-Blue assay; assay type: cell-based; conditions: Kineret 1.0 mg/mL, 30 min pretreatment, IL-1β 100 ng/ml
Method: FIG. 3 is a graph showing the effects of peptides 1 and 2 on IL-1β-induced NF-κB signaling in HEK-Blue cells as quantified in the QUANTI-blue assay. After pre-incubation with peptide or vehicle, HEK-Blue cells were stimulated with IL-1β for 24 h, and secreted alkaline phosphatase activity was spectroscopically detected as a reporter product from the transcription of the NF-κB gene. Data shown represents the average of 2 experiments (each with n=4 per treatment group): ****p<0.0001 compared to group treated only with IL-1β.
HEK-Blue IL-33/IL-1β cells (InvivoGen) were respectively pretreated with peptides 1 and 2 (10^−6 M), or Kineret (1.0 mg/mL) for 30 min, followed by treatment with a constant concentration of […] (100 ng/ml), and incubation at 37° C. for 4 h. Levels of secreted alkaline phosphatase in cell culture supernatant were determined using the QUANTI-Blue assay, according to the manufacturer's instructions (InvivoGen). Alkaline phosphatase activity was assessed by measuring the optical density (OD) at 620-655 nm with an EnVision Multilabel micro plate reader (PerkinElmer, Waltham, MA). Data are representative of 3 experiments (each with n=4 per treatment group).

Substance	retinal microglial morphology/activation (Iba-1 staining) (Sprague Dawley rat pups)	extent of vaso-obliteration (percentage of total retinal area) (Sprague Dawley rat pups) [%]	IL-1β pro-inflammatory gene expression (qPCR) (IL-1β gene expression)	COX-2 pro-inflammatory gene expression (qPCR) [2]	also measured
[(3S,4S)-4-(NCS)Agl^3]-1 [2d]	ramified and branched microglia	~20	–	–	IL-1β-induced p38 phosphorylation [1]: inhibiting; protective effect against vaso-obliteration (Sprague Dawley rat pups): tendencies to have a stronger protective effect than peptide 1
[(3R, 4S)-4-(N3)Agl^3]-1 [2c]	active amoeboid state	–	–	–	protective effect against vaso-obliteration (Sprague Dawley rat pups): no detectable protective effect
[(3R,4S)-4-(4′-m-Aminophenyltriazolyl)Agl^3]-1 [2n]	ramified and branched microglia	~20	–	–	effects on PTB (timed-pregnant CD-1 mice): Neither N-oxyphthalimide 2f nor 4-m-aminophenyltriazole 2n exhibited effects on PTB
[(3R,4S)-4-(4′-p-Methylphenyltriazolyl)Agl^3]-1 [2m]	–	–	strong inhibitory effects	strong inhibitory effects	–
[(3R,4S)-4-(4′-Phenyltriazolyl)Agl^3]-1 [2l]	ramified and branched microglia	~20	–	–	IL-1β-induced p38 phosphorylation [1]: inhibiting; IL-1β-induced activation (phosphorylation) of JNK [3]: inhibited; IL-1β-induced ROCK2 phosphorylation [4]: inhibitory activity; PTB rate (timed-pregnant CD-1 mice): ~20%; protective effect against vaso-obliteration (Sprague Dawley rat pups): tendencies to have a stronger protective effect than peptide 1
[(3R,4S)-4-(4′-(1,1-Dimethyl)aminomethyltriazolyl)Agl^3]-1 [2o]	–	–	strong inhibitory effects	strong inhibitory effects	–
[(3R,4S)-4-(H2NO)Agl^3]-1 [2g]	–	–	without effecting	blocked expression	IL-1β-induced ROCK2 phosphorylation [4]: inhibitory activity
Kineret®: the recombinant IL-1 receptor antagonist, Kineret® (anakinra)	–	–	–	–	effect on IL-1β-induced NF-κB signaling (secreted alkaline phosphatase) [5]: blocked
[(3R,4S)-4-(4′-Hydroxymethyltriazolyl)Agl^3]-1 [2q]	ramified and branched microglia	~20	strong inhibitory effects	strong inhibitory effects	IL-1β-induced activation (phosphorylation) of JNK [3]: inhibited; PTB rate (timed-pregnant CD-1 mice): ~20%
[(3R,4S)-4-(PhthO)Agl^3]-1 [2f]	ramified and branched microglia	~20	–	–	effects on PTB (timed-pregnant CD-1 mice): Neither N-oxyphthalimide 2f nor 4-m-aminophenyltriazole 2n exhibited effects on PTB
[(3R,4S)-4-(AcHN)Agl^3]-1 [2i]	–	–	without effecting	blocked expression	IL-1β-induced p38 phosphorylation [1]: inhibiting
